{"source": "patent US12496288B2", "about": "“Vaginal tablet formulation” (Gedea Biotech AB, priority 2019, dated 2025)", "key": {"[1]": {"test_system": "different Candida species", "test": "Biofilm of Candida species", "type": "cell-based", "conditions": "found by the present inventors"}, "[2]": {"test_system": "several strains of bacteria", "test": "Biofilm of bacteria", "type": "cell-based", "conditions": "found by the present inventors"}, "[3]": {"test_system": "different Candida species", "conditions": "WO 2017/174731, WO 2019/068862; cited from earlier work"}, "Candida albicans": {"test_system": "Candida albicans", "conditions": "preclinical studies; WO 2017/174731; cited from earlier work"}, "[4]": {"conditions": "oral doses between 3 g and 50 g; cited from earlier work"}, "[5]": {"test_system": "several strains of bacteria", "conditions": "WO 2017/174731, WO 2019/068862; cited from earlier work"}, "[6]": {"conditions": "IPCS 1999; 21CFR184.1318; cited from earlier work"}}, "data": [{"compound": "O=C1O[C@H](CO)[C@@H](O)[C@H](O)[C@H]1O", "note": "[GDL, glucono-δ-lactone]", "values": [{"measurement": "formation of biofilm", "setting": "[1]", "value": "has an effect on the formation of biofilm"}, {"measurement": "formation of biofilm", "setting": "[2]", "value": "has an effect on the formation of biofilm"}, {"measurement": "presence / formation of biofilm", "setting": "[3]", "value": "significantly reduced"}, {"measurement": "Candida albicans present in the hyphal, i.e. the pathogenic form", "setting": "Candida albicans", "value": "significant reduction"}, {"measurement": "signs of toxicity", "setting": "[4]", "value": "no signs of toxicity"}]}, {"compound": "O=C(O)[C@H](O)[C@@H](O)[C@H](O)[C@H](O)CO", "note": "[gluconic acid]", "values": [{"measurement": "presence / formation of biofilm", "setting": "[3]", "value": "reduces the presence of biofilm"}, {"measurement": "presence of biofilm", "setting": "[5]", "value": "reduces the presence of biofilm"}, {"measurement": "carcinogenicity, teratogenicity, or genotoxicity", "setting": "[6]", "value": "no evidence"}]}]}
